This note sets out measurements from US4937244A, “Substituted 3-aminosydnonimines, processes for their preparation and their use” (Cassella Aktiengesellschaft, priority 1987, dated 1990).

Structures can show the parent of a compound that is named as a salt.

This test relates to arteria pulmonalis of the guinea pig. The experiment in a line: Relaxing action on potassium-depolarized, CaCl2-contracted spiral strips of guinea pig pulmonary artery (modified method of Godfraind and Kaba and of Schuman et al). To be noted: Cavia porcellus; spiral strips depolarized with 40 mmol/l potassium; contraction initiated with 0.5 mmol/l CaCl2; cumulative addition; mean value of 4 to 6 strips of vessel; read-out: IC50 (concentration of test substance which inhibits the contraction by 50%). Format: cell-based. An excerpt: The pharmacological action of the compounds of the formula I has been determined by a modified method of Godfraind and Kaba (Arch. Int. Pharmacodyn. Ther. 196, (Suppl) 35 to 49, 1972) and of Schuman et al (Naunyn-Schmiedeberg's Arch Pharmacol. 289 409 to 418, 1975). […], spiral strips of the arteria pulmonalis of the guinea pig are depolarized with 40 mmol/l of potassium after equilibration in calcium-free tyrode solution. Addition of 0.5 mmol/l of CaCl2 then initiates a contraction. The relaxing action of the test substance is determined by cumulative addition in concentrations in steps of 1/2 log 10. The concentration of test substance which inhibits the contraction by 50% (=IC50, mol/l) is determined from the concentration/effects curve (abscissa: -log mol/l of test substance, ordinate: % inhibition of the maximum concentration, mean value of 4 to 6 strips of vessel).

As for `CC1(C)CCCC(C)(C)N1[n+]1cc(=N)o[n-]1` [a, 3-(2,2,6,6-Tetramethylpiperidino)-sydnonimine hydrochloride], the IC50 came to 30 µM. On to `CC(C)N1CC(C)(C)N([n+]2cc(=N)o[n-]2)C(C)(C)C1` [b, 3-(2,2,6,6-Tetramethyl-4-isopropyl-piperazin-1-yl)sydnonimine dihydrochloride], for which the IC50 worked out at 3 µM. For `CC1(C)COCC(C)(C)N1[n+]1cc(=N)o[n-]1` [c, 3-(3,3,5,5-Tetramethylmorpholino)-sydnonimine hydrochloride] the value was 100 µM; for `CCOC(=O)[N-]c1cn(N2CCOCC2)n[o+]1` [d, N-Ethoxycarbonyl-3-morpholinosydnonimine, reference compound], 300 µM.
